“Also recorded” adds a separate entry of the source. Like-named read-outs stand apart in the source and are kept apart here. Where a SMILES comes first, the peptide text is derived from it. The star is where a group is joined. Boc = CC(C)(C)OC(=O)*; CH2Cl = ClC*
Experiments:
[1] = test system: Calpain in crude brain extracts; assay: Ca2+-stimulated spectrin proteolysis in crude brain extracts (Example 2); type: biochemical; settings: for inhibition of spectrin proteolysis in crude brain extracts: 100 μM
Procedure, shortened: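 Brain tissue was homogenized in 10 mM Tris pH 7.4, 0.32 M sucrose, 1 mM EGTA and 1 mM DTT, and nuclei and debris were removed. Calpain activity was scored as Ca^2+-stimulated proteolysis of endogenous spectrin.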

Calpain within platelets = assay: Platelet membrane permeation assay, spectrin proteolysis (Examples 4A, 4B); type: cell-based, rat; settings: for inhibition of Calpain within platelets: 100 μM, A23187 1 μM; for IC50: concentration at which 50% of the Calpain activation present in controls occurred
Procedure, shortened: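 Rat (Sprague-Dawley) platelets at 10^7 cells/ml in HEPES buffer pH 7.4, preincubated 5 min with inhibitor, then 5 min with 1 μM A23187 to activate calpain. Spectrin proteolysis assessed by SDS-PAGE and anti-spectrin immunoblot, quantified by densitometry.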

[2] = molecular target: T1, calpain II from rabbit muscle (Oryctolagus cuniculus, UniProt P06814); assay: Calpain II Ki (Table 1B(i)); type: biochemical
T1 sequence (P06814 1-422): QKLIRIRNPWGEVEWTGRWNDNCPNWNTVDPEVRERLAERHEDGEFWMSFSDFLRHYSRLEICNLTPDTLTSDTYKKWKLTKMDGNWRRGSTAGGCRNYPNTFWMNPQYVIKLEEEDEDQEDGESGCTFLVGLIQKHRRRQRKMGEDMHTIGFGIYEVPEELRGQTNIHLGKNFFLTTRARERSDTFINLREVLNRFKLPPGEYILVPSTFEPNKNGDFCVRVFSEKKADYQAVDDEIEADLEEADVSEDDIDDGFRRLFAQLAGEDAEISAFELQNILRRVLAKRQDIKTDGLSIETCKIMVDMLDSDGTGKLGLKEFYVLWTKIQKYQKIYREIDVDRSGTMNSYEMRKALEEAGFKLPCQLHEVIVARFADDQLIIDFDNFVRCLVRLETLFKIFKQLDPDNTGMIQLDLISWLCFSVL
T1 sequence (P06813 1-266 partner): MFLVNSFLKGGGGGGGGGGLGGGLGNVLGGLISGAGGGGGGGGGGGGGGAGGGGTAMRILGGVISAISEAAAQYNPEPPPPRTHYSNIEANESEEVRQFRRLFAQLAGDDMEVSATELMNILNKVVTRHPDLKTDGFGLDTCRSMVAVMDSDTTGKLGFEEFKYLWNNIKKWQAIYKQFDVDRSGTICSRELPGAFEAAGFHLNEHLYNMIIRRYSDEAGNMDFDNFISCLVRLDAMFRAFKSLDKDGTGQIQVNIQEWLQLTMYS
Experimental: The Peptide Keto-Compounds are reversible inhibitors of Calpains and other thiol proteases. […] Cathepsin B from bovine spleen was assayed using Z-[…]-nitrophenylphosphate as substrate. […] The Ki value for the inhibition of Calpains and cathepsin B by several Peptide Keto-Compounds are shown in μM (micromolar). The values for leupeptin, which is commercially available from Calbiochem of La Jolla, Calif., are shown for comparison.

PP Elastase = PP Elastase (Sus scrofa, UniProt P00772); assay: PP Elastase KI (Table 1B(ii)); type: biochemical
Sequence of PP Elastase (P00772 27-266): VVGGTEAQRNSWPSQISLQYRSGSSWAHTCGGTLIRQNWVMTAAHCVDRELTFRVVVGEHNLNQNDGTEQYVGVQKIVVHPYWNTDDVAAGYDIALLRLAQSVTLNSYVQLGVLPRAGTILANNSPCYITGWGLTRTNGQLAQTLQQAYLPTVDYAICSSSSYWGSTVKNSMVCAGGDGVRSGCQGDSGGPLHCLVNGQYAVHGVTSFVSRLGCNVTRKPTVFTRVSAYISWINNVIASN
Description: We tested the ability of an additional group of Peptide Keto-Compounds to inhibit several proteases in order to evaluate their specificity for Calpain.

[3] = Suc-Leu-Tyr-amidomethylcoumarin, HEPES pH 7.2, read-out: Ki Calpain II

| SMILES | inhibition of spectrin proteolysis in crude brain extracts [1] | inhibition of Calpain within platelets (Calpain within platelets) | Ki [2, 3] [nM] | Ki (PP Elastase) [nM] | IC50 (Calpain within platelets) [nM] | Ki [2] [nM] | inhibition in the system of Example 2 ([1]; concentration not given) | effect on intracellular (platelet) Calpain (Calpain within platelets; concentration not given) |
| --- | --- | --- | --- | --- | --- | --- | --- | --- |
| CCC(NC(=O)[C@@H]1CCCN1C(=O)[C@H](C)NC(=O)[C@H](C)NC(=O)CCC(=O)OC)C(=O)C(=O)OC (mixture of isomers) [MeO-Suc-Ala-Ala-Pro-Abu-COOMe, MeO-Suc-Ala-Ala-Pro-DL-Abu-CO2 Me] | significant inhibition | significant inhibition |  |  |  |  |  |  |
| CCOC(=O)C(=O)C(CC)NC(=O)[C@H](C)NC(=O)[C@H](C)NC(=O)OCc1ccccc1 (mixture of isomers) [Z-Ala-Ala-DL-Abu-COOEt, Z-Ala-Ala-DL-Abu-CO2 Et] | significant inhibition | significant inhibition | 200000 |  |  |  |  |  |
| CCOC(=O)C(=O)[C@H](CC)NC(=O)[C@H](CC(C)C)NC(=O)OCc1ccccc1 (racemic) [Z-Leu-Abu-COOEt, Z-Leu-DL-Abu-COOEt] | significant inhibition | significant inhibition | 400 | > 100000 | 42000 |  |  |  |
| CCCC(NC(=O)[C@H](CC(C)C)NC(=O)OCc1ccccc1)C(=O)C(=O)OCC (mixture of isomers) [Z-Leu-Nva-COOEt, Z-Leu-DL-Nva-COOEt] | significant inhibition | significant inhibition | 1200 | 2300 | 40000 |  |  |  |
| CC(C)CC(NC(=O)CNC(=O)OC(C)(C)C)C(=O)NC(Cc1ccccc1)C(=O)CCl (stereo not drawn) [Boc-Gly-Leu-Phe-CH2 Cl] (Boc-Gly-Leu-Phe-CH2Cl; configuration not given here) | significant inhibition | significant inhibition |  |  |  |  |  |  |
| N=C(N)SCCCOc1oc(=O)c2ccccc2c1Cl [CiTprOIC, 4-chloro-3-(3-isothiureidopropoxy)isocoumarin] | significant inhibition | significant inhibition |  |  |  |  |  |  |
| CC(=O)N[C@@H](CC(C)C)C(=O)N[C@@H](CC(C)C)C(=O)N[C@H](C=O)CCCNC(=N)N [Leupeptin, Ac-Leu-Leu-Arg-H, reference compound] |  |  |  |  |  | 430 | showed inhibition | little effect; also recorded: failed to exhibit Calpain inhibitory activity |
| N=C(N)SCCCOc1oc(=O)c2cc(N)ccc2c1Cl [NH2 -CiTPrOIC (ACITIC), 7-amino-4-chloro-3-(3-isothiureidopropoxy)isocoumarin] | significant inhibition | significant inhibition |  |  |  |  |  |  |
| CCCCC(NC(=O)C(CC(C)C)NC(=O)OCc1ccccc1)C(=O)C(=O)OCC (stereo not drawn) [Z-Leu-Nle-COOEt, Z-Leu-NLeu-CO2 Et] | significant inhibition | significant inhibition | 180 | 2200 | 20000 |  |  |  |
| CCOC(=O)C(=O)C(Cc1ccccc1)NC(=O)C(CC(C)C)NC(=O)OCc1ccccc1 (stereo not drawn) [Z-Leu-Phe-COOEt] | significant inhibition | significant inhibition | 400 | > 100000 | 42000 |  |  |  |

Reference: patent US5444042A, “Method of treatment of neurodegeneration with calpain inhibitors” (Cortex Pharmaceuticals, priority 1994, dated 1995)
